Consider 4 compounds from patent US8999987B2, “Dihydropyridophthalazinone inhibitors of poly(ADP-ribose)polymerase (PARP)” (BioMarin Pharmaceutical Inc., priority 2008, dated 2015).

In test [1] the test system is BRCA2-deficient cell line V-C8. The conditions noted are these: V-C8 compared with the BRCA2 wild type control; cited from earlier work.
The next test addresses PARP-1 (Homo sapiens, UniProt P09874). Particulars: PARP-1 inhibitor; cited from earlier work.
The subject of another test is CAPAN-1 cells. The conditions noted are these: CAPAN-1 cells in DMEM with FCS (20% v/v); cited from earlier work.
Another test deals with BRCA2-deficient tumors. Particulars: cited from earlier work.
For the next test, the system named is MX-1 xenograft model. In words: Xenograft combination study with Cisplatin. The format is in vivo, mice. The conditions noted are these: MX-1 breast xenograft model; comparable doses of cisplatin or PARP inhibitor alone. On the procedure: Female athymic nu/nu mice (8-10 weeks old) were used for all in vivo xenograft studies. Mice were quarantined for at least 1 week before experimental manipulation. Exponentially growing cells or in vivo passaged tumor fragments were implanted subcutaneously at the right flank of nude mice. Tumor-bearing mice were randomized according to tumor size into 6-8 mice/group in each study (average tumor size ˜150 mm^3). Mice were observed daily for survival and tumors were measured twice weekly by caliper in two dimensions and converted to tumor mass using the formula for a prolate ellipsoid (V=0.5 a×b^2), where a and b are the long and short diameters of the tumor, respectively, and assuming unit density (1 mm^3=1 mg).
Combination study: PARP inhibitory compounds described herein in vehicle 10% DMAc/6% Solutal/84% PBS, were either administered orally, once daily for 5 days with Temozolomide (17 mg/kg or 34 mg/kg, p.o., qd×5, 30 min after each dose of compounds) in SW620 xenograft model or dosed orally, once daily for 8 days with 6 mg/kg Cisplatin (once by ip on day 3, 30 min after first dose of PARP inhibitors) in MX-1 xenograft model. Mice were observed and individual tumor was measured for 30 more days after the last dosing of PARP inhibitory compounds.

PARP-1, sequence (P09874 whole entry, species assumed): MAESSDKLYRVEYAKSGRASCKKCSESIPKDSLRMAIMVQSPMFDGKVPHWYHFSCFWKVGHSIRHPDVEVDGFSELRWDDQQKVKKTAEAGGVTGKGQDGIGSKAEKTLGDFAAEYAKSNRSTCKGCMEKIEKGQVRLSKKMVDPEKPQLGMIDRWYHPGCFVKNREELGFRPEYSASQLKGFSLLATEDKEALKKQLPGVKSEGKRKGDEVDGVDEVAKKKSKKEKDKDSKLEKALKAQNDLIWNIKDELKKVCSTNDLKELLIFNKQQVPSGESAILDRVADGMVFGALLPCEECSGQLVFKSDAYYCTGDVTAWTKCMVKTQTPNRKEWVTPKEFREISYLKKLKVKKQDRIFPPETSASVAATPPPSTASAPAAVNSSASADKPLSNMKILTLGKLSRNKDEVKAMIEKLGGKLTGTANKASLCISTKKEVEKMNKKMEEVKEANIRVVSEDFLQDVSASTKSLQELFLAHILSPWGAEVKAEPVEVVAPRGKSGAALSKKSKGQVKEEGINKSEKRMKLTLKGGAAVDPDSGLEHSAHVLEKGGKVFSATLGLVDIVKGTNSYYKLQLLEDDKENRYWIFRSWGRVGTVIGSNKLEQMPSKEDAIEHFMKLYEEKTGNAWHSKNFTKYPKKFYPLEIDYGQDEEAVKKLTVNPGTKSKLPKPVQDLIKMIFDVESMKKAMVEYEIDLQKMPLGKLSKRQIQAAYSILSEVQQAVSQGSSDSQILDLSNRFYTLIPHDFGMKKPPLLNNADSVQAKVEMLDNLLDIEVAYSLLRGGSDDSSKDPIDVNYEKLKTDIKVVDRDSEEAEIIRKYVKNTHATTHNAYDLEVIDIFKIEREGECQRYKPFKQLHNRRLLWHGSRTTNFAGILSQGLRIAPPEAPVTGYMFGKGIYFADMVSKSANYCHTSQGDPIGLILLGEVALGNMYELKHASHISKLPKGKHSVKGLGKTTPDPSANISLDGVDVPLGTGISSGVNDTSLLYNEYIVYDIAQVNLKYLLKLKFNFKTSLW

In the case of `CN(C)Cc1ccc(-c2nc3cccc4c3n2CCNC4=O)cc1` [AG14361], the “sensitivity in clonogenic survival assay” value in test [1] is given as “exhibited sensitivity”. In addition, the Ki at PARP-1 is 5 nM. `O=C1CCC(=O)N1c1cc(Cc2n[nH]c(=O)c3ccccc23)ccc1F` [KU0058684]: the “sensitivity in clonogenic survival assay” value with CAPAN-1 cells is recorded as “showing sensitivity to PARP inhibition”. Besides, in the test with BRCA2-deficient tumors, the “in vivo efficacy, tumor growth” value is “shown in vivo efficacy in blocking the growth of BRCA2-deficient tumors”.

For `Cc1nc2c(O)cccc2c(=O)[nH]1` [NU1025], the “sensitivity in clonogenic survival assay” value in test [1] is “exhibited sensitivity”. Besides, the inhibition constant Ki at PARP-1 is 50 nM. In the case of `N.N.[Cl][Pt][Cl]` [cisplatin], the “tumor inhibition, agent alone” value in the test on MX-1 xenograft model is “only small to modest tumor inhibition”.
